Patent US20230348362A1, “LIPID COMPOUNDS AND LIPID NANOPARTICLE COMPOSITIONS” (Suzhou Abogen Biosciences Co., Ltd., priority 2021, published 2023)

How the values were obtained:
Type in all cases: physicochemical
[1] = Lipid nanoparticle size and polydispersity by dynamic light scattering; settings: LNP of lipid/DSPC/cholesterol/PEG-lipid 50:10:38.5:1.5 encapsulating hEPO mRNA
In short: (§1)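 LNPs made from ionizable lipid/DSPC/cholesterol/PEG-lipid (50:10:38.5:1.5) and mRNA in citrate pH 4 by microfluidic mixing, lipid:mRNA about 10:1–30:1 w/w, then dialysed into DPBS and filtered. Size and PDI measured by DLS in backscatter mode; encapsulation efficiency measured by RiboGreen assay.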

[2] = Encapsulation efficiency of lipid nanoparticles, Quant-it Ribogreen RNA assay; settings: LNP of lipid/DSPC/cholesterol/PEG-lipid 50:10:38.5:1.5 encapsulating hEPO mRNA
In short: as §1

[3] = Apparent pKa of LNP formulations, TNS fluorescence assay; settings: LNP cationic lipid/DSPC/cholesterol/DMG-PEG 50/10/38.5/1.5 mol %
In short: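 LNPs (cationic lipid/DSPC/cholesterol/DMG-PEG 50/10/38.5/1.5 mol %) diluted to 0.1 mg/mL total lipid in citrate/phosphate/borate/NaCl buffers spanning pH 3–9 with TNS. Fluorescence (ex 325, em 435 nm) read at room temperature; pKa taken as the pH at half-maximal intensity from sigmoidal fit.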

SMILES | polydispersity [1] | size (nm) [1] [nm] | Encapsulation Efficiency [2] [%] | Apparent Pka [3]
CCCCCCCCC(CCCCCCCC)COC(=O)CCCCCN(CCO)CCN(CCCCCC(=O)OCC(CCCCCCCC)CCCCCCCC)C1CCSCC1 [Compound 30] | 0.115 | 53.56 | 92.9 | 6.131
CCCCCCCCC(CCCCCC)CNC(=O)CCCCCN(CCCCCO)CCN(CCCCC(COC(=O)CCCCCCC)COC(=O)CCCCCCC)C1CCCCCCC1 (centres unmarked) [Compound 210] | 0.06 | 79.56 | 91.52 | 6.49
CCCCCCCCC(CCCCCC)CNC(=O)CCCCCCCN(CCO)CCN(CCCCC(COC(=O)CCCCCCC)COC(=O)CCCCCCC)C1CCCC1 (centres unmarked) [Compound 234] | 0.035 | 67.07 | 88.68 | 6.566
CCCCCCCCCOC(=O)CCCCCCCN1CCC(N(CCO)CCCCCCCC(=O)OC(CCCCCCCC)CCCCCCCC)CC1 [Compound 177] | 0.059 | 95.00 | 93.69 | 6.668
CCCCCCCCC(CCCCCCCC)CNC(=O)CCCCCN(CC=C(C)C)CCN(CCO)CCCCCC(=O)OCC(CCCCCCCC)CCCCCCCC [Compound 121] | 0.077 | 70.01 | 93.23 | 6.583
CCCCCCCCC(CCCCCC)COC(=O)CCCCCN(CCO)CCN(CCCCCC(=O)OCC(CCCCCC)CCCCCCCC)C1CCCCCC1 (centres unmarked) [Compound 24] | 0.114 | 57.78 | 93.90 | 6.162
CCCCCCCC(=O)OCC(COCCN(CCO)CCN(CCOCC(COC(=O)CCCCCCC)COC(=O)CCCCCCC)C1CCCCC1)COC(=O)CCCCCCC [Compound 179] | 0.041 | 103.40 | 89.97 | 6.322
CCCCCCCCOC(CCCCCN(CCO)CCN(CCCCCC(=O)NCC(CCCCCC)CCCCCCCC)C1CCCCCC1)OCCCCCCCC (centres unmarked) [Compound 202] | 0.042 | 84.35 | 88.47 | 6.738
CCCCCCCCCCCC(=O)OCCCCCN(CCN(CCO)CCCCCOC(=O)CC(CCCCCCCC)CCCCCCCC)C1CCCCCC1 [Compound 94] | 0.061 | 58.34 | 90.26 | 6.448
CCCCCCCCC(CCCCCCCC)COC(=O)CCCCCN(CCCCCN(CCO)CCCCC(COC(=O)CCCCCCC)COC(=O)CCCCCCC)C1CCC1 [Compound 187] | 0.083 | 88.82 | 94.26 | 6.226
CCCCCCCC(=O)OCC(CCCCN(CCC)CCCCN(CCO)CCCCC(COC(=O)CCCCCCC)COC(=O)CCCCCCC)COC(=O)CCCCCCC [Compound 184] | 0.172 | 129.75 | 90.65 | 7.098
CCCCCCCCC(CCCCCC)COC(=O)CCCCCN(CCO)CCN(CCCCC(COC(=O)CCCCCCC)COC(=O)CCCCCCC)C1CCCC1 (centres unmarked) [Compound 137] | 0.040 | 67.32 | 89.36 | 6.494
CCCCCCCCCOC(=O)CCCCCN(CCN(CCO)CCCCCC(=O)OCC(CCCCCCCC)CCCCCCCC)C1CCCCC1 [Compound 102] | 0.082 | 77.17 | 90.14 | 6.407
CCCCCCCCC(CCCCCC)CNC(=O)CCCCCN(CCOCCO)CCN(CCCCC(COC(=O)CCCCCCC)COC(=O)CCCCCCC)C1CCCCCC1 (centres unmarked) [Compound 207] | 0.071 | 87.97 | 87.94 | 6.657
CCCCCCCCC(CCCCCCCC)COC(=O)CCCCCN(CCO)CCN(CCCCCCOC(=O)C(CCCCCCCC)CCCCCCCC)C1CCC1 [Compound 84] | 0.097 | 59.91 | 91.88 | 6.117
CCCCCCCCC(CCCCCCCC)CC(=O)NCCCCCN(CCO)CCN(CCCCCNC(=O)CC(CCCCCCCC)CCCCCCCC)C1CCC1 [Compound 60] | 0.039 | 59.89 | 91.7 | 6.761
CCCCCCCCC(CCCCCC)COC(=O)CCCCCN(CCCCN(CCO)CCCCC(COC(=O)CCCCCCC)COC(=O)CCCCCCC)C1CC1 (centres unmarked) [Compound 190] | 0.13 | 78.4 | 88.81 | 6.699
CCCCCCCCC(CCCCCCCC)COC(=O)CCCCCN1CCC(N(CCO)CCCCC(COC(=O)CCCCCCC)COC(=O)CCCCCCC)CC1 [Compound 261] | 0.066 | 82.86 | 95.18 | 6.552
CCCCCCCCCCCC(=O)OCCCCCN(CCN(CCO)CCCCCOC(=O)CC(CCCCCCCC)CCCCCCCC)C1CCC1 [Compound 92] | 0.014 | 80.12 | 91.34 | 6.582
CCCCCCCCC(CCCCCC)CNC(=O)CCCCCN(CC=C(C)C)CCN(CCO)CCCCC1COC(C(CCCCCC)CCCCCCCC)OC1 (centres unmarked) [Compound 150] | 0.076 | 76.37 | 91.34 | 6.586
CCCCCCCCCCCOC(=O)CCCCCN(CCN(CCO)CCCCCC(=O)OCC(CCCCCC)CCCCCCCC)C1CCC1 (centres unmarked) [Compound 4] | 0.076 | 90.8 | 91.9 | 6.709
CCCCCCCCC(CCCCCCCC)COC(=O)CCCCCN(CCO)CCN(CCCCCC(=O)OCC(CCCCCCCC)CCCCCCCC)C1CCC1 [Compound 10] | 0.168 | 70.21 | 86.6 | 6.176
CCCCCCCCCCCCCCCCCCOC(=O)CCCCCN(CCN(CCO)CCCCCC(=O)OCC(CCCCCCCC)CCCCCCCC)C1CCCCC1 [Compound 105] | 0.051 | 69.11 | 93.35 | 6.328
CCCCCCCCC(CCCCCCCC)COC(=O)CCCCCN(CCO)CCN(CCCCCC(=O)OCC(CCCCCCCC)CCCCCCCC)Cc1ccccc1 [Compound 36] | 0.093 | 49.69 | 89.3 | 5.802
CCCCCCCCCCCOC(=O)CCCCCN(CCN(CCO)CCCCCC(OCCCCCCCC)OCCCCCCCC)C1CCC1 [Compound 200] | 0.054 | 84.18 | 92.81 | 6.593
CCCCCCCCC(CCCCCCCC)COC(=O)CCCCCN(CCO)CCN(CCCCCC(=O)OCC(CCCCCCCC)CCCCCCCC)CCC(C)C [Compound 118] | 0.121 | 57.96 | 94.10 | 6.044
CCCCCCCCCCCC(=O)OCCCCCN(CCN(CCO)CCOCCOC(=O)CC(CCCCCCCC)CCCCCCCC)C1CCC1 [Compound 97] | 0.045 | 76.13 | 88.12 | 6.912
CCCCCCCCC(CCCCCC)COC(=O)CCCCCN(CCCCN(CCO)CCCCC(COC(=O)CCCCCCC)COC(=O)CCCCCCC)C1CCCC1 (centres unmarked) [Compound 191] | 0.117 | 86.61 | 93.35 | 6.552
CCCCCCCCC(CCCCCC)CNC(=O)CCCCCN(CCCCN(CCO)CCCCC(COC(=O)CCCCCCC)COC(=O)CCCCCCC)C1CCCCCCC1 (centres unmarked) [Compound 199] | 0.162 | 80.14 | 94.30 | 6.858
